Experimental data from US7256219B2, “Multifluoro-substituted chalcones and analogs as activators of caspases and inducers of apoptosis and the use thereof” (Cytovia, Inc., priority 2001, dated 2007).
pEC50: −log10 of the molar value.

Assays:
[1] = system: T-47D cells; experiment: Caspase cascade activation (N-(Ac-DEVD)-N'-ethoxycarbonyl-R110 fluorogenic substrate) in T-47D cells; format: cell-based, Human; conditions: 24 h incubation; for Caspase activity Ratio (net RFU of test compound to that of control): 0.016 to 10 μM final; for pEC50: Homo sapiens, T47D, read-out: Caspase potency EC50
Description: (§1) Human breast cancer cell lines T-47D and ZR-75-1 were grown according to media component mixtures designated by American Type Culture Collection+10% FCS (Invitrogen Corporation, Life Technologies Division), in a 5% CO2-95% humidity incubator at 37° C. T-47D and ZR-75-1 cells were maintained at a cell density between 50 and 80% confluency at a cell density of 0.1 to 0.6×10^6 cells/ml. Cells were harvested at 600×g and resuspended at 0.65×10^6 cells/ml into appropriate media+10% FCS. An aliquot of […] of cells was added to a well of a 96-well microtiter plate containing 2.5 μl of a 10% DMSO in RPMI-1640 media solution containing 0.16 to 100 μM of 1-[2,5-bis(2,2,2-trifluoroethoxy)phenyl]-3-[4-(trifluoromethyl)phenyl]-2-propen-1-one or other test compound (0.016 to 10 μM final). An aliquot of 22.5 μl of cells was added to a well of a 384-well microtiter plate containing 2.5 μl of a 10% DMSO in RPMI-1640 media solution without test compound as the control sample. The samples were mixed by agitation and then incubated at 37° C. for 24 h in a 5% CO2-95% humidity incubator. After incubation, the samples were removed from the incubator and 25 μl of a solution containing 14 μM of N-(Ac-DEVD)-N′-ethoxycarbonyl-R110 (SEQ. ID NO:1) fluorogenic substrate (Cytovia, Inc.; WO99/18856), 20% sucrose (Sigma), 20 mM DTT (Sigma), 200 mM NaCl (Sigma), 40 mM Na PIPES buffer pH 7.2 (Sigma), and 500 μg/ml lysolecithin (Calbiochem) was added. The samples were mixed by agitation and incubated at room temperature. Using a fluorescent plate reader (Model SpectraMax Gemini, Molecular Devices), an initial reading (T=0) was made approximately 1-2 min after addition of the substrate solution, employing excitation at 485 nm and emission at 530 nm, to determine the background fluorescence of the control sample. After the 3 h incubation, the samples were read for fluorescence as above (T=3 h).
(§2) The Relative Fluorescence Unit values (RFU) were used to calculate the sample readings as follows: RFU(T=3h)−Control RFU(T=0)=Net RFU(T=3h)
(§3) The activity of caspase cascade activation was determined by the ratio of the net RFU value for 1-[2,5-bis(2,2,2-trifluoroethoxy)phenyl]-3-[4-(trifluoromethyl)phenyl]-2-propen-1-one or other test compound to that of control samples. The EC50 (nM) was determined by a sigmoidal dose-response response calculation (Prism 2.0, GraphPad Software Inc.).

[2] = system: ZR-75-1 cells; experiment: Caspase cascade activation (N-(Ac-DEVD)-N'-ethoxycarbonyl-R110 fluorogenic substrate) in ZR-75-1 cells; format: cell-based, Human; conditions: ZR-75-1, 24 h incubation; for pEC50: Homo sapiens, read-out: Caspase potency EC50; for Caspase activity Ratio (net RFU of test compound to that of control): 0.016 to 10 μM final
Description: as §1, §2, §3

[3] = system: T-47D; experiment: Inhibition of cell proliferation (GI50), T-47D; format: cell-based; conditions: Homo sapiens, T47D, 48 h
Description: (§4) All the cell lines were grown according to the conditions recommended by American Type Culture Collection. An aliquot of 90 μl of cells (2.2×10^4 cells/ml) was added to a well of a 96-well microtiter plate containing 10 μl of a 10% DMSO in RPMI-1640 media solution containing 1 nM to 100 μM of 1-[2,5-bis(2,2,2-trifluoroethoxy)phenyl]-3-[4-(trifluoromethyl)phenyl]-2-propen-1-one (0.1 nM to 10 μM final). An aliquot of 90 μl of cells was added to a well of a 96-well microtiter plate containing 10 μl of a 10% DMSO in RPMI-1640 media solution without compound as the control sample for maximal cell proliferation (AMax). The samples were mixed by agitation and then incubated at 37° C. for 48 h in a 5% CO2-95% humidity incubator. After incubation, the samples were removed from the incubator and 20 μl of CellTiter 96 AQUEOUS One Solution Cell Proliferation™ reagent (Promega) was added. […] Using an absorbance plate reader (Model 1420 Wallac Instruments), an initial reading (T=0) was made approximately 1-2 min after addition of the solution, employing absorbance at 490 nm. This determines the possible background absorbance of the test compounds. No absorbance for 1-[2,5-bis(2,2,2-trifluoroethoxy)phenyl]-3-[4-(trifluoromethyl)phenyl]-2-propen-1-one was found at 490 nm. After the 2-4 h incubation, the samples were read for absorbance as above (ATest). […]

[4] = system: SK-Br-3; experiment: Inhibition of cell proliferation (GI50), SK-Br-3; format: cell-based; conditions: Homo sapiens, SK-BR-3, 48 h
Description: as §4

[5] = system: MDA-MB-435; experiment: Inhibition of cell proliferation (GI50), MDA-MB-435; format: cell-based; conditions: Homo sapiens, MDA-MB-435, 48 h
Description: as §4

[6] = system: MCF-7; experiment: Inhibition of cell proliferation (GI50), MCF-7; format: cell-based; conditions: Homo sapiens, MCF7; MCF-7, 48 h
Description: as §4

[7] = system: PC-3; experiment: Inhibition of cell proliferation (GI50), PC-3; format: cell-based; conditions: Homo sapiens, PC-3, 48 h
Description: as §4

[8] = system: HeLa; experiment: Inhibition of cell proliferation (GI50), HeLa; format: cell-based; conditions: Homo sapiens, 48 h
Description: as §4

[9] = system: DLD-1; experiment: Inhibition of cell proliferation (GI50), DLD-1; format: cell-based; conditions: Homo sapiens, DLD-1, 48 h
Description: as §4

[10] = system: K562; experiment: Inhibition of cell proliferation (GI50), K562; format: cell-based; conditions: Homo sapiens, K562, 48 h
Description: as §4

[11] = system: PANC-1; experiment: Inhibition of cell proliferation (GI50), PANC-1; format: cell-based; conditions: Homo sapiens, PANC-1, 48 h
Description: as §4

[12] = system: T-47D cells; experiment: Cell cycle arrest and apoptosis in T-47D cells (propidium iodide flow cytometry); format: cell-based, Human; conditions: 10 μM
Description: T-47D, a breast cancer cell line, was maintained and harvested as described in Example 23. […] As a control, cells were also incubated with equivalent amount of solvent (DMSO). Cells were harvested at 1,200 rpm and then transferred to 12×75 mm polystyrene tubes. Cells were then resuspended in 500 μl of 1% Na Citrate, 0.1% Triton X-100, and 50 μg/ml of propidium iodide and incubated at room temperature for 30 min followed by flow cytometer analysis. All flow cytometry analyses were performed on FACScalibur (Becton Dickinson) using Cell Quest analysis software. The x-axis plotted the amount of fluorescence and the y-axis is plotted the number of cells with the indicated fluorescence. […] An increase from 13% to 33% in the sub-diploid DNA content of cells (FIG. 1) is also seen with compound treatment. The sub-diploid amount of DNA is indicative of apoptotic cells which have undergone DNA degradation or fragmentation.

SMILES	Caspase activity Ratio (net RFU of test compound to that of control) [1]	pEC50 [1]	pEC50 [2]	Caspase activity Ratio (net RFU of test compound to that of control) [2]	GI50 [3] [nM]	GI50 [4] [nM]	GI50 [5] [nM]	GI50 [6] [nM]	GI50 [7] [nM]	GI50 [8] [nM]	GI50 [9] [nM]	GI50 [10] [nM]	GI50 [11] [nM]	sub-diploid DNA content of cells (M1) ([12]; T47D, 24 h, FIG. 1B legend)	G2/M DNA content cells ([12]; T-47D, FIG. 1B)	sub-diploid DNA content of cells ([12]; T-47D, control 13%) [%]
O=C(C=Cc1ccccc1)c1cc(OCC(F)(F)F)ccc1OCC(F)(F)F [Example 3, 1-[2,5-Bis(2,2,2-trifluoroethoxy)phenyl]-3-phenyl-2-propen-1-one]	6.8	5.80	5.27	3.3	–	–	–	–	–	–	–	–	–	–	–	–
O=C(C=Cc1ccc(C(F)(F)F)cc1)c1cc(OCC(F)(F)F)ccc1OCC(F)(F)F [Example 4, 1-[2,5-Bis(2,2,2-trifluoroethoxy)phenyl]-3-[4-(trifluoromethyl)phenyl]-2-propen-1-one]	25.2	5.30	5.22	5.5	1500	1800	3200	2400	3000	2300	2500	2200	3100	increase of sub-diploid DNA content of cells	increase in G2/M DNA content cells	33
O=C(C=Cc1ccc([N+](=O)[O-])cc1)c1cc(OCC(F)(F)F)ccc1OCC(F)(F)F [Example 15, 1-[2,5-Bis(2,2,2-trifluoroethoxy)phenyl]-3-(4-nitrophenyl)-2-propen-1-one]	20.4	5.17	5.16	14.9	–	–	–	–	–	–	–	–	–	–	–	–
